As a reminder, the AC50 is the concentration giving half of the maximal activity seen.

Activity calls are given as the source filed them.

This passage reports IC50, AC50 and EC50 results from ChEMBL document CHEMBL1201862, “PubChem BioAssay data set” (2004).

Test [1] addresses Neuropeptides B/W receptor type 1 (Homo sapiens, UniProt P48145). The experiment in a line: GPR7 antagonist potency, late-stage follow-up, cell-based, fluorescence, dose response, set 6 (AID 588583). The format is functional.
Test [2] addresses Melanin-concentrating hormone receptor 1 (Homo sapiens, UniProt Q99705). Nature of the test: Late-stage fluorescence-based counterscreen for antagonists of the G-protein coupled receptor 7 (GPR7): cell-based dose response assay to identify antagonists of the melanin-concentrating hormone receptor 1 (MCHR1) Set 6. The format is functional. A general note: A counterscreen serves to expose hits that act by an unwanted route or on another target.

Test [3] deals with T1, DNA dC->dU-editing enzyme APOBEC-3A (Homo sapiens, UniProt P31941). The experiment in a line: SAR analysis of small molecule inhibitors of APOBEC3A DNA Deaminase via a fluorescence-based single-stranded DNA deaminase assay - Set 2. The format is functional. As to conditions: read-out: IC50_Mean.
Test [4] deals with T2, DNA dC->dU-editing enzyme APOBEC-3G (Homo sapiens, UniProt Q9HC16). The experiment in a line: APOBEC3G deaminase inhibitors, SAR follow-up, biochemical, fluorescence, single-stranded DNA substrate (AID 602136). The format is functional. The note with it: read-out: IC50_Mean.
For test [5], the target named is T1, DNA dC->dU-editing enzyme APOBEC-3A. Nature of the test: SAR analysis of small molecule inhibitors of APOBEC3A DNA Deaminase via a fluorescence-based single-stranded DNA deaminase assay. The format is functional. As to conditions: read-out: IC50_Mean.
Test [6] addresses T2, DNA dC->dU-editing enzyme APOBEC-3G. Nature of the test: SAR analysis of small molecule inhibitors of APOBEC3G DNA Deaminase via a fluorescence-based single-stranded DNA deaminase assay - Set 2. The note with it: read-out: IC50_Mean. The format is functional.
The target in test [7] is Melanocortin receptor 4 (Homo sapiens, UniProt P32245). The experiment in a line: MC4R antagonist potency on cAMP, dose response, cell-based, TR-FRET, biased antagonists (AID 602298).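 Also: antagonist potency against agonist-stimulated cAMP production.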 The format is functional. (In general: TR-FRET usually uses a lanthanide donor and a delayed reading to cut background.)
The target in test [8] is Paired box protein Pax-8 (Homo sapiens, UniProt Q06710). The experiment in a line: inhibitors of PAX8-driven TPO luciferase reporter, dose response, RMG-I cells, cherry-pick (AID 687027).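 Also: luciferase reporter driven by Pax8 target thyroperoxidase promoter measured by SteadyGlo luminescence.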 The format is functional, cell-based. Background: A reporter such as luciferase makes a cellular process visible.
Test [9] in a line: nonselective inhibitors of cellular cAMP signaling, dose response, counter-screen for MC4R biased antagonist project, cell-based, TR-FRET cAMP detection (AID 602305).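 Also: U2OS cells stimulated with forskolin near its EC80 as the cAMP inducer; potency is for inhibition of forskolin-stimulated cAMP signaling.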 The test is classed as functional.
For test [10], the system named is HEK293. The experiment in a line: inhibitors of LMP1-driven NF-kB reporter, dose response, cell-based, HEK293, luciferase, cherry-pick (AID 588343). The test is classed as functional. The note with it: Homo sapiens.
A short description of test [11]: non-specific cell cytotoxicity, dose response, cytotoxicity control for PAX8 inhibitor project, plate reader, dry powder samples (AID 743021). The format is functional, cell-based.
Test [12] has as its system H9c2. The experiment in a line: cells. The test is classed as functional, cell-based. As to conditions: Rattus norvegicus, H9c2, Myocardium.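 Also: confirmatory concentration-response retest of ultra-high-throughput screening hits for modulation of myocardial damage; cell death induced by hydrogen peroxide oxidative stress; compound pretreatment for 60 min then peroxide exposure for 2 h; potency is for protecting the cells against peroxide damage rather than for killing them.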
The target of test [13] is T3, ATP-dependent translocase ABCB1 (Homo sapiens, UniProt P08183). Nature of the test: ABCG2 efflux pump inhibitor potency, dose response, Ig-MXP3 cells, JC-1, flow cytometry, set 2 (AID 504566).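 Also: flow cytometry median green fluorescence of retained JC-1 dye; potency of efflux pump inhibition measured as rising substrate retention.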 The format is functional. The note with it: read-out: EC50_MICROM_.
Test [14] concerns the target T3, ATP-dependent translocase ABCB1. The experiment in a line: ABCB1 efflux inhibitor potency, dose response, Jurkat-DNR cells, JC-1, flow cytometry, set 2 (AID 504569).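 Also: potency of pump inhibitors that raise cellular JC-1 green fluorescence up to the nicardipine level.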 The format is functional. The note with it: read-out: EC50_MICROM_.

T2 sequence (Q9HC16 whole entry): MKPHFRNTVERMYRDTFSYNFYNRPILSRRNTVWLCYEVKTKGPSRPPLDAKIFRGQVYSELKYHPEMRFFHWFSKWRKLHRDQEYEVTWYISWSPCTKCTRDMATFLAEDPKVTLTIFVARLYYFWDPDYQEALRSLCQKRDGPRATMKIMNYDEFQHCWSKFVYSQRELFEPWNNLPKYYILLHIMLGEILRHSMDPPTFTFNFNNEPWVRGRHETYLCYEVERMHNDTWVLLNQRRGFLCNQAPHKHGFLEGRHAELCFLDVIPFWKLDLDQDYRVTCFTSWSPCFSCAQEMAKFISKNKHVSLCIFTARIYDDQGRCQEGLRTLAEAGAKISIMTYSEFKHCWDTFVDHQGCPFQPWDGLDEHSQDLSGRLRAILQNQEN
T3 sequence (P08183 whole entry): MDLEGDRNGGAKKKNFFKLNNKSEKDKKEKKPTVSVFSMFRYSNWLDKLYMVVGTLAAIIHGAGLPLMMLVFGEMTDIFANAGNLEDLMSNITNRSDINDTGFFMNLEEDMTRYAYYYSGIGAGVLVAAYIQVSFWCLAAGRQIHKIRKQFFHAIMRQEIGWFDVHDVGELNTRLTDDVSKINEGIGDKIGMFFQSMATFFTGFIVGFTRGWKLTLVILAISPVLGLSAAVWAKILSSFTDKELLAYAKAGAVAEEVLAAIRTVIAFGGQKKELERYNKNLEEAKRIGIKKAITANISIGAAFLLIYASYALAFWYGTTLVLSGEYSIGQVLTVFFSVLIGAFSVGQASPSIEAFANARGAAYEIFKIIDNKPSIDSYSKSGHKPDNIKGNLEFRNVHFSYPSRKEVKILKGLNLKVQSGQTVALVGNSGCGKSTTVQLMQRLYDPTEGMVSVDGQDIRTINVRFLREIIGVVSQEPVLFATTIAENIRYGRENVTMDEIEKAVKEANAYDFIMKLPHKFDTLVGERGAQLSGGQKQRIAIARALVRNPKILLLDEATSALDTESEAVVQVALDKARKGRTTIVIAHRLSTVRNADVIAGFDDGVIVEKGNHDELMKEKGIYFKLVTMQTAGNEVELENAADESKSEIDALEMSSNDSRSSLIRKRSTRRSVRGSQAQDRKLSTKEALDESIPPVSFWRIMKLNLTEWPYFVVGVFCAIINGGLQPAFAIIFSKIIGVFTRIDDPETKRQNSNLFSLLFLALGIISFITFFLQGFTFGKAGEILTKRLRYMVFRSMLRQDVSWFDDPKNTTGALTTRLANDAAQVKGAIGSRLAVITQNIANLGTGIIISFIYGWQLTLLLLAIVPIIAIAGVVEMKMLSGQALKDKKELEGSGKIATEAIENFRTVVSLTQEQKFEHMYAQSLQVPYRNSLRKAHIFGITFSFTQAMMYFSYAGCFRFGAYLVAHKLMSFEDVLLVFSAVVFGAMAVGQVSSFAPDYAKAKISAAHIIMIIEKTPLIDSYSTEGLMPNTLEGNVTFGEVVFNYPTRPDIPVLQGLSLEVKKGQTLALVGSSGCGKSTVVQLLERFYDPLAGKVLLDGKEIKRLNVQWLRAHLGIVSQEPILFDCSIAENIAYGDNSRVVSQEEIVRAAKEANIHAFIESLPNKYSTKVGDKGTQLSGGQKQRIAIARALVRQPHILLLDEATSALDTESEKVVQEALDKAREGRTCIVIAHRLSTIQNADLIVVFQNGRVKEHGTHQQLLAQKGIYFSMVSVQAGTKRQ
T1 sequence (P31941 whole entry): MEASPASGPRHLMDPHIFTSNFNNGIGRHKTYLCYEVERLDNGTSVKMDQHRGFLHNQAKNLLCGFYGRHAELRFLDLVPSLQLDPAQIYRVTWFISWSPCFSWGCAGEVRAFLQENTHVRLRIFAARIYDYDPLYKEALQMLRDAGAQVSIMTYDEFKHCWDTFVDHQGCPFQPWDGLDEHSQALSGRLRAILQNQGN
Chain of Melanin-concentrating hormone receptor 1 (Q99705 whole entry): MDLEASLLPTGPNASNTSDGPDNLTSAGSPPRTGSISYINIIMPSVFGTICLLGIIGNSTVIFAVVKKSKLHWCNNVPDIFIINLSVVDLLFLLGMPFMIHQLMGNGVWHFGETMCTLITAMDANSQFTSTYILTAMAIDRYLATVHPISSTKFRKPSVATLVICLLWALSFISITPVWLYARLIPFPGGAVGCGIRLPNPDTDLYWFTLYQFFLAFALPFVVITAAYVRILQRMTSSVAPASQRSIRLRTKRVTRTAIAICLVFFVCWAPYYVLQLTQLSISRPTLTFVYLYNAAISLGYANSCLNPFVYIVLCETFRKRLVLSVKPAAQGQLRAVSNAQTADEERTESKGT
Chain of Paired box protein Pax-8 (Q06710 whole entry): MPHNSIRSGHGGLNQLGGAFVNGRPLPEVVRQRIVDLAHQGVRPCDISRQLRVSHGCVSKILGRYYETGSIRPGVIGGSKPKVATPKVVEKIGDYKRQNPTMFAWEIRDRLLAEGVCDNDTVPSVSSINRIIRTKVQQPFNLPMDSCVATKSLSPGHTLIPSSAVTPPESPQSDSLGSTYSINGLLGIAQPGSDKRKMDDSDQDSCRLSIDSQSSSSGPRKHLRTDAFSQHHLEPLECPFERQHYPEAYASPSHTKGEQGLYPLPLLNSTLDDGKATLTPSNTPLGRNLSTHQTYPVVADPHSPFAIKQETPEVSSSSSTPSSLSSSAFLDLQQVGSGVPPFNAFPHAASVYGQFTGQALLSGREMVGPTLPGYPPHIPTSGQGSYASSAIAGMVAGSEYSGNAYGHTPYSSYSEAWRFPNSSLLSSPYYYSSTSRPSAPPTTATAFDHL
Chain of Neuropeptides B/W receptor type 1 (P48145 whole entry): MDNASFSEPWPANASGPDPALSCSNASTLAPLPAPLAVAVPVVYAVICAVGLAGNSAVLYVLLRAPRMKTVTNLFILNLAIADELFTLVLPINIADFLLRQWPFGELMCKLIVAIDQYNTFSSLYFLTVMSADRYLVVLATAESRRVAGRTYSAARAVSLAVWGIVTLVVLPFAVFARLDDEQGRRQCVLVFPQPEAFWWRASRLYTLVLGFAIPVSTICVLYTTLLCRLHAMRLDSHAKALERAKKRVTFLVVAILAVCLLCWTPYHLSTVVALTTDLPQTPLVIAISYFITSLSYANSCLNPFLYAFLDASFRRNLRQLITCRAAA
Chain of Melanocortin receptor 4 (P32245 whole entry): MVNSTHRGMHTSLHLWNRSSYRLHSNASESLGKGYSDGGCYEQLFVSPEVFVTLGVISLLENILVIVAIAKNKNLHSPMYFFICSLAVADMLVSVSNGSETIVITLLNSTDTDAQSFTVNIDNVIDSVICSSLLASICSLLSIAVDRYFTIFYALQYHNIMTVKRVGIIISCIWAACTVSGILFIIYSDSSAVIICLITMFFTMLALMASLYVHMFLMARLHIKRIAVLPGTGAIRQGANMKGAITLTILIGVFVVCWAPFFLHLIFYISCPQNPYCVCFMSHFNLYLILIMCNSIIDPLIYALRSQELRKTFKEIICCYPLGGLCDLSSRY

On to `N#CC(c1ccccc1F)c1c(Cl)cnn(Cc2cccc3ccccc23)c1=O` (centres undefined), for which the IC50 in test [1] and in [2] was 0.937 µM (active) throughout.

With `O=C(NCc1ccc2c(c1)OCO2)c1nn2cccnc2c1Cl`, the IC50 in test [3] is > 99 µM (inactive); in test [4], > 99 µM (inactive); in test [5], > 99 µM (inactive); in [6], 49.9 µM (inactive).

Regarding `C#Cc1cc(N2CCN(C(=O)c3ccoc3)CC2)n2nc(-c3cccc(Cl)c3)cc2n1`, the IC50 in test [7] is > 64.6 µM (inactive); in test [9], > 64.6 µM (inactive); in test [12] it was > 79 µM (inactive). Moreover, the half-maximal activity concentration (AC50) in test [8] was 3.79 µM (active); in [10], 13.4 µM (active); in [11], 4.43 µM (active). In addition, the EC50 was 1.98 µM (active) in test [13] and 7.34 µM (active) in test [14].
